Source: patent EP3406693B1, “FREEZER OIL FOR R32 REFRIGERANT AND COMPOSITION COMPRISING SAME” (NOF Corporation, priority 2016, dated 2017)

What was measured:
Type in all cases: physicochemical
Acid number (JIS C2101) = assay: Acid number (JIS C2101)
Protocol: According to JIS C2101, the acid number of ester A1 and the like was measured.

Pour point (JIS K2269) = assay: Pour point (JIS K2269)
Protocol: According to JIS K2269, the pour point of ester A1 and the like was measured.

[1] = Two-layer separation temperature of ester A1 to A8 and R32 refrigerant; conditions: ester 2 g + R32 refrigerant 6 g, range -60°C to +40°C
Protocol: Using the aforementioned ester A1 to ester A8 as a refrigerating machine oil, a two-layer separation temperature of ester A1 to ester A8 and R32 refrigerant was measured as follows. To be specific, any of ester A1 to ester A8 (2 g) and R32 refrigerant (6 g) were sealed in a pressure-resistant glass tube and cooled from 40°C at a rate of 1°C/min by using an ethanol bath containing dry ice. The temperature at which ester and R32 refrigerant was separated in two layers was measured within the range of -60°C to +40°C by visual observation. One with a two-layer separation temperature of +40°C or above was evaluated as ×, +40°C to -10°C as ○, and - 10°C or below as ⊙.

[2] = Cloud point of additive in 1,1,1,3,3-pentafluorobutane/ethyl acetate (JIS 2269); conditions: 10 mass % in 1,1,1,3,3-pentafluorobutane/ethyl acetate 75/25 (mass ratio)
Protocol: As the aforementioned additive, any can be used as long as it has a cloud point of not less than -30°C when measured under the aforementioned conditions. Only one kind of the aforementioned additive may be used or two or more kinds thereof may be used in combination. […] The cloud point of the aforementioned additive as measured under the above-mentioned conditions is preferably not less than -20°C, more preferably not less than -15°C. The cloud point can be measured according to JIS 2269 "Testing Methods for Pour Point and Cloud Point of Crude Oil and Petroleum Products".
The cloud point when the additive (triphenyl phosphate and glycerol monooleate) used in the production of the below-mentioned refrigerating machine oil composition was dissolved at a concentration of 10 mass % in a mixed solvent of 1,1,1,3,3-pentafluorobutane and ethyl acetate at a mass ratio (1,1,1,3,3-pentafluorobutane/ethyl acetate) of 75/25 was measured according to JIS 2269. The cloud point of triphenyl phosphate measured under these conditions was -3°C and the cloud point of glycerol monooleate was 25°C.

Structure (SMILES): CCCCOC(=O)CC(O)(CC(=O)OCCCC)C(=O)OCCCC [ester A6]
- acid number (Acid number (JIS C2101)): 0.1 or below mgKOH/g
- pour point (Pour point (JIS K2269)): -50 °C
- two-layer separation temperature ([1]; cooled from 40°C at 1°C/min, visual): ≤ -60 °C
- two-layer separation temperature (evaluation) [1]: ⊙ (- 10 °C or below as ⊙)

Structure (SMILES): CCCCCCCC/C=C\CCCCCCCC(=O)OCC(O)CO (stereo not drawn) [glycerol monooleate]
- cloud point [2]: 25 °C

Structure (SMILES): O=P(Oc1ccccc1)(Oc1ccccc1)Oc1ccccc1 [triphenyl phosphate]
- cloud point [2]: -3 °C
